ChEMBL document CHEMBL1148688, “4-Aryl-5-cyano-2-aminopyrimidines as VEGF-R2 inhibitors: synthesis and biological evaluation” (Bioorg Med Chem Lett, 2007)

Experiments:
[1] = biological target: Vascular endothelial growth factor receptor 2 (Homo sapiens, UniProt P35968); experiment: Inhibition of VEGFR2 activity
[2] = biological target: Cyclin-dependent kinase 1 (Homo sapiens, UniProt P06493); experiment: Inhibition of CDK1 activity
[3] = Oral bioavailability in nude mouse at 3 mg/kg; format: ADME, organism-based; settings: in vivo
[4] = Area under curve in nude mouse at 3 mg/kg; format: ADME, organism-based; design: dose 3 mg/kg; settings: in vivo
Mus musculus [5] = experiment: Drug level in nude mouse plasma at 100 mg/kg, po; format: ADME, organism-based; design: dose 100 mg/kg, route oral; settings: in vivo
[6] = Half life in nude mouse at 100 mg/kg, po; format: ADME, organism-based; design: dose 100 mg/kg, route oral; settings: in vivo
Mus musculus [7] = experiment: Decrease in body weight in C57BL/6 mouse at 100 to 175 mg/kg, po; settings: in vivo

Vascular endothelial growth factor receptor 2, sequence (P35968 whole entry): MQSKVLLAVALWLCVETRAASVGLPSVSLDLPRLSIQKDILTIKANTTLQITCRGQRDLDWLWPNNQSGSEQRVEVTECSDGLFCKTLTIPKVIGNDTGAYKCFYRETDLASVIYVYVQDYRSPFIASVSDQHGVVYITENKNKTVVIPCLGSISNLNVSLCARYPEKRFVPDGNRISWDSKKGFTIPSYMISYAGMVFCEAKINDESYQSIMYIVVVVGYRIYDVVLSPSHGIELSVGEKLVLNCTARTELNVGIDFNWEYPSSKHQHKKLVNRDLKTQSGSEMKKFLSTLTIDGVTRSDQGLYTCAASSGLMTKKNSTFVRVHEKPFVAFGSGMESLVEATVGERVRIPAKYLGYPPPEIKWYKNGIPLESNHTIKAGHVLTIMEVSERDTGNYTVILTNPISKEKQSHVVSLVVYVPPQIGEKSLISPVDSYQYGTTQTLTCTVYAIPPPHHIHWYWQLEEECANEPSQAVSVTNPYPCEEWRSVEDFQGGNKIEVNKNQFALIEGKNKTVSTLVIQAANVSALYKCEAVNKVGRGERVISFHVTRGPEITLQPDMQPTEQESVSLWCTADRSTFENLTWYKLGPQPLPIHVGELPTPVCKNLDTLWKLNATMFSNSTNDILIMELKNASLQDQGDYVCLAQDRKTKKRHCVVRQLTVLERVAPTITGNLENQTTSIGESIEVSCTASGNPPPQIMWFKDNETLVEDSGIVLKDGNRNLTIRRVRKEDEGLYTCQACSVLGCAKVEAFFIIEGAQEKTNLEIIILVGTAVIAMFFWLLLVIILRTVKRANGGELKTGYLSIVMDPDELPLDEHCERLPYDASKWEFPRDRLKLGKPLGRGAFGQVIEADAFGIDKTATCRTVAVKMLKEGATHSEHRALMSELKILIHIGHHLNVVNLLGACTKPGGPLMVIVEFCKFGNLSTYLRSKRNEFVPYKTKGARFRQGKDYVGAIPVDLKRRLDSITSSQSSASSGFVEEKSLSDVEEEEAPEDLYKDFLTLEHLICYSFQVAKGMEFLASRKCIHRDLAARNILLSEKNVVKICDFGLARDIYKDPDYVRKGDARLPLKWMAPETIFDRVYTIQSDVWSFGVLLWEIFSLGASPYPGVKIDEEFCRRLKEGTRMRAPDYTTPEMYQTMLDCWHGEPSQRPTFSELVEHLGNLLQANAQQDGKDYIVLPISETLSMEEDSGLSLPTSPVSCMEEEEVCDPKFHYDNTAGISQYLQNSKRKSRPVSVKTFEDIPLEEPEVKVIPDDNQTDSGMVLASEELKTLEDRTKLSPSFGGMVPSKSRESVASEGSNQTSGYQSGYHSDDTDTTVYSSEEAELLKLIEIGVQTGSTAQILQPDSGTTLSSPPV
Cyclin-dependent kinase 1, sequence (P06493 whole entry): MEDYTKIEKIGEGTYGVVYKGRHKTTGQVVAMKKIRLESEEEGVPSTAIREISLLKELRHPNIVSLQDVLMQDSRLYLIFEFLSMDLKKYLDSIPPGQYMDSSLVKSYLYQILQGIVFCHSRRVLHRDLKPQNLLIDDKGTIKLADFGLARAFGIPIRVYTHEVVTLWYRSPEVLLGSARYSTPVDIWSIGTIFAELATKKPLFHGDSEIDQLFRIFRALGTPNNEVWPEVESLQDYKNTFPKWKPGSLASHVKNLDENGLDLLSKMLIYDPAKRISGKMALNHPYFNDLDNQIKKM

| SMILES | IC50 [1] [nM] | IC50 [2] [nM] | further results |
| --- | --- | --- | --- |
| CC(C)(N)c1ccc(-c2nc(Nc3ccc(CCN4CCOCC4)cc3)ncc2C#N)cc1 | 27 | 4100 | bioavailability [3]: 44%; AUC [4]: 15.6 µM·h; concentration (Mus musculus [5]): 12 µM; half-life [6]: 7 h; Activity (Mus musculus [7]): Not Active |
| CC(C)(N)c1ccc(-c2nc(Nc3cccc(CCN4CCOCC4)c3)ncc2C#N)cc1 | 55 | 5700 | – |
| CCc1nccn1CCc1ccc(Nc2ncc(C#N)c(-c3ccc(C(C)(C)N)cc3)n2)cc1 | 94 | 4800 | – |
| N#Cc1cnc(Nc2ccc(CCC(=O)N3CCOCC3)cc2)nc1-c1ccccc1 | 180 | 2100 | – |
| N#Cc1cnc(Nc2cccc(CN3CCOCC3)c2)nc1-c1ccccc1 | 360 | 2000 | – |
| N#Cc1cnc(Nc2nc3ccccc3[nH]2)nc1-c1ccccc1 | 10000 | > 10000 | – |
| N#Cc1cnc(Nc2ncccn2)nc1-c1ccccc1 | > 10000 | > 10000 | – |
| N#Cc1cnc(Nc2ccc(CCO)cc2)nc1-c1ccc(Br)cc1 | 180 | 2000 | – |
| N#Cc1cnc(Nc2ccc(CCO)cc2)nc1-c1ccc(S(N)(=O)=O)cc1 | 200 | 1900 | – |
| N#Cc1cnc(Nc2ccc(CCO)cc2)nc1-c1nc2ccccc2s1 | 340 | 560 | – |
| CC(C)(O)c1ccc(-c2nc(Nc3ccc(CCO)cc3)ncc2C#N)cc1 | 410 | 2700 | – |
| CC(C)(C)c1nc(Nc2ccc(CCO)cc2)ncc1C#N | 1600 | 1100 | – |
| CC(C)(N)c1ccc(-c2nc(Nc3ccc(OCCN4CCOCC4)cc3)ncc2C#N)cc1 | 450 | 21000 | – |
| CC(C)(N)c1ccc(-c2nc(Nc3ccc(CCO)cc3)ncc2C#N)cc1 | 52 | 1600 | – |
| N#Cc1cnc(Nc2ccc(CCO)cc2)nc1-c1cccs1 | 82 | 470 | – |
| COc1cc(Nc2ncc(C#N)c(-c3ccccc3)n2)ccc1CN1CCCC1 | 91 | 9000 | – |
| N#Cc1cnc(Nc2ccc(CCO)cc2)nc1-c1ccc2[nH]ccc2c1 | 90 | 410 | – |
| N#Cc1cnc(Nc2ccc(CCO)cc2)nc1-c1cc2ccccc2[nH]1 | 1400 | 1700 | – |
| CN1CCN(CCc2ccc(Nc3ncc(C#N)c(-c4ccc(C(C)(C)N)cc4)n3)cc2)CC1 | 21 | 5600 | – |

More lines, main results first:

| IC50 [1] [nM] | IC50 [2] [nM] | SMILES | further results |
| --- | --- | --- | --- |
| 61 | 6200 | N#Cc1cnc(Nc2ccc(CN3CCCC3)cc2)nc1-c1ccccc1 | – |
| 110 | 6500 | N#Cc1cnc(Nc2ccc(CCN3CCCC3)cc2)nc1-c1ccccc1 | – |
| 380 | 4200 | COc1cccc(Nc2ncc(C#N)c(-c3ccccc3)n2)c1 | – |
| 410 | 3300 | Cc1cc2cc(Nc3ncc(C#N)c(-c4ccccc4)n3)ccc2[nH]1 | – |
| 1000 | 3500 | Cc1ccc(Nc2ncc(C#N)c(-c3ccccc3)n2)cc1 | – |
| > 10000 | > 10000 | N#Cc1cnc(Nc2ccc(Cl)cc2)nc1-c1ccccc1 | – |
| 150 | 1500 | COc1ccc(-c2nc(Nc3ccc(CCO)cc3)ncc2C#N)cc1 | – |
| > 10000 | > 10000 | COc1ccccc1Nc1ncc(C#N)c(-c2ccccc2)n1 | – |
| 490 | 3300 | COc1ccc(Nc2ncc(C#N)c(-c3ccccc3)n2)cc1 | – |
| 200 | 2000 | N#Cc1cnc(Nc2ccc(CCO)cc2)nc1-c1ccccc1 | – |
| 2100 | > 10000 | N#Cc1cnc(Nc2ccc3ccccc3c2)nc1-c1ccccc1 | – |
| > 10000 | > 10000 | N#Cc1cnc(Nc2ccccc2Cl)nc1-c1ccccc1 | – |
| 1000 | > 10000 | N#Cc1cnc(Nc2ccccc2)nc1-c1ccccc1 | – |
